The results in this text go back to patent publication US7960377B2 (priority 2008, dated 2011).

Sequence of human CB1 receptor (P21554 whole entry): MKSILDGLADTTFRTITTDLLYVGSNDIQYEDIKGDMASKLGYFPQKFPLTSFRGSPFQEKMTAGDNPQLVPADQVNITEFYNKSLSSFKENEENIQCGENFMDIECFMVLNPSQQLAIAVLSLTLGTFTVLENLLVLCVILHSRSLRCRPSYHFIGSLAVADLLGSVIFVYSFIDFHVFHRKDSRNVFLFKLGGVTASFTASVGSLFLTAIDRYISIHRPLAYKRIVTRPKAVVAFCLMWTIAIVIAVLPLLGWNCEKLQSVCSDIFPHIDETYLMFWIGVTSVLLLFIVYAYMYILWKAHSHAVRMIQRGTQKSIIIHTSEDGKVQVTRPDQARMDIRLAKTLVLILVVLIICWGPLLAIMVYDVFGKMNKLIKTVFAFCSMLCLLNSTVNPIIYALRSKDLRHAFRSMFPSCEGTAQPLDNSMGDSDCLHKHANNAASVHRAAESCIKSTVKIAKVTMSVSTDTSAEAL

The target in one assay is T1, rat CB2 receptor (Rattus norvegicus, UniProt Q9QZN9).
T1 sequence (Q9QZN9 1-360): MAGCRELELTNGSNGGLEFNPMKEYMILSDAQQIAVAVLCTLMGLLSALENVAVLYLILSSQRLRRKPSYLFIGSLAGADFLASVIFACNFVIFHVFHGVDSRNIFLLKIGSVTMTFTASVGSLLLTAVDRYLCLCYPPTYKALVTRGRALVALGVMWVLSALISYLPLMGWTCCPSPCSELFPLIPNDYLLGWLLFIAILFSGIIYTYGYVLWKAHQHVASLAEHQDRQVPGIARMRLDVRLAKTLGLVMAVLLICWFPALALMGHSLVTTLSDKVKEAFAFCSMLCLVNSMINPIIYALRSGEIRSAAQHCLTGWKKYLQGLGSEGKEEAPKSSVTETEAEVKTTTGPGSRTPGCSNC
The experiment in a line: cell-based. Type of assay: cell-based.
Conditions: not given
Turning to `CC(C)(CO)CNC(=O)c1cnc2c(c1)N(S(=O)(=O)c1ccc(Cl)c(Cl)c1)CCO2` [Example 131, 1-(3,4-dichlorophenyl-sulfonyl)-N-(3-hydroxy-2,2-dimethylpropyl)-2,3-dihydro-1H-pyrido[2,3-b][1,4]oxazine-7-carboxamide], the EC50 is no more than 30 nM.
`O=C(N[C@H]1CCC[C@H]1O)c1cnc2c(c1)N(S(=O)(=O)c1ccc(Cl)c(Cl)c1)CCO2` [Example 132, 1-(3,4-dichlorophenyl-sulfonyl)-N-((1S,2R)-2-hydroxycyclopentyl)-2,3-dihydro-1H-pyrido[2,3-b][1,4]oxazine-7-carboxamide] registered a half-maximal effective concentration (EC50) of no more than 30 nM.
Same read-out and setting: next, `CC(C)(CO)NC(=O)c1cnc2c(c1)N(S(=O)(=O)c1ccc(F)cc1F)CCO2` [Example 102, 1-(2,4-difluorophenylsulfonyl)-N-(1-hydroxy-2-methylpropan-2-yl)-2,3-dihydro-1H-pyrido[2,3-b][1,4]oxazine-7-carboxamide]: no more than 30 nM; `CC(C)(CO)NC(=O)c1cnc2c(c1)N(S(=O)(=O)c1ccc(C(F)(F)F)cc1)CCO2` [Example 39, N-(1-hydroxy-2-methyl-propan-2-yl)-1-(4-(trifluoromethyl)phenylsulf-onyl)-2,3-dihydro-1H-pyrido[2,3-b][1,4]oxazine-7-carboxamide]: no more than 30 nM; `CC(C)(CO)NC(=O)c1cnc2c(c1)N(S(=O)(=O)N1CCCC1)CCO2` [Example 149, N-(1-hydroxy-2-methylpropan-2-yl)-1-(pyrrolidin-1-ylsulfonyl)-2,3-dihydro-1H-pyrido[2,3-b][1,4]oxazine-7-carboxamide]: no more than 30 nM.
In the case of `CCC(C)(C)NC(=O)c1cnc2c(c1)N(S(=O)(=O)N1CCOCC1)CCO2` [Example 142, 1-(morpholinosulfonyl)-N-tert-pentyl-2,3-dihydro-1H-pyrido[2,3-b][1,4]oxazine-7-carboxamide], the concentration for a half-maximal effect (EC50) is no more than 30 nM.
On the same count and under the same terms, for `CC(C)(C)NC(=O)c1cnc2c(c1)N(S(=O)(=O)N1CCC(C(F)(F)F)CC1)CCO2` [Example 150, N-tert-butyl-1-(4-(trifluoromethyl)piperidin-1-ylsulfonyl)-2,3-dihydro-1H-pyrido[2,3-b][1,4]oxazine-7-carboxamide] the value was no more than 30 nM; for `CC(C)(C)NC(=O)c1cnc2c(c1)N(S(=O)(=O)N1CCCCC1)CCO2` [Example 2, N-tert-butyl-1-(piperidin-1-ylsulfonyl)-2,3-dihydro-1H-pyrido[2,3-b][1,4]oxazine-7-carboxamide], no more than 30 nM.
In turn, `COC(=O)C(C)(C)NC(=O)c1cnc2c(c1)N(S(=O)(=O)c1ccc(Cl)c(Cl)c1)CCO2` [Example 136, methyl 2-(1-(3,4-dichlorophenylsulfonyl)-2,3-dihydro-1H-pyrido[2,3-b][1,4]oxazine-7-carboxamido)-2-methylpropanoate] displayed an EC50 of no more than 30 nM.
In turn, `CC1CCN(S(=O)(=O)N2CCOc3ncc(C(=O)NCC(C)(C)CO)cc32)CC1` [Example 173, N-(3-hydroxy-2,2-dimethylpropyl)-1-(4-methylpiperidin-1-ylsulfonyl)-2,3-dihydro-1H-pyrido[2,3-b][1,4] oxazine-7-carboxamide] showed an EC50 of no more than 30 nM.
Compound `CC(C)(C)NC(=O)c1cnc2c(c1)N(S(=O)(=O)N1CCC(F)(F)C1)CCO2` [Example 163, N-tert-butyl-1-(3,3-difluoropyrrolidin-1-ylsulfonyl)-2,3-dihydro-1H-pyrido[2,3-b][1,4]oxazine-7-carboxamide] registered an EC50 of no more than 30 nM.
For the compound `COC(=O)C1(NC(=O)c2cnc3c(c2)N(S(=O)(=O)c2ccc(Cl)c(Cl)c2)CCO3)CCOCC1` [Example 205, methyl 4-(1-(3,4-dichlorophenylsulfonyl)-2,3-dihydro-1H-pyrido[2,3-b][1,4]oxazine-7-carboxamido)tetrahydro-2H-pyran-4-carboxylate], the EC50 is no more than 30 nM.
`CC(C)(CO)CNC(=O)c1cnc2c(c1)N(S(=O)(=O)N1CCC(C(F)(F)F)CC1)CCO2` [Example 155, N-(3-hydroxy-2,2-dimethylpropyl)-1-(4-(trifluoromethyl)piperidin-1-ylsulfonyl)-2,3-dihydro-1H-pyrido[2,3-b][1,4]oxazine-7-carboxamide] showed an EC50 of no more than 30 nM.
Same read-out and setting: next, `CC(C)(C)NC(=O)c1cnc2c(c1)N(S(=O)(=O)N1CCCC1)CCO2` [Example 148, N-tert-butyl-1-(pyrrolidin-1-ylsulfonyl)-2,3-dihydro-1H-pyrido[2,3-b][1,4]oxazine-7-carboxamide]: no more than 30 nM; `CCN(C(=O)c1cnc2c(c1)N(S(=O)(=O)c1ccc(C(F)(F)F)cc1)CCO2)C(C)(C)C` [Example 42, N-tert-butyl-N-ethyl-1-(4-(trifluoromethyl)phenylsulf-onyl)-2,3-dihydro-1H-pyrido[2,3-b][1,4]oxazine-7-carboxamide]: no more than 30 nM.
Compound `CC(C)(CO)NC(=O)c1cnc2c(c1)N(S(=O)(=O)N1CCC(C(F)(F)F)CC1)CCO2` [Example 152, N-(1-hydroxy-2-methylpropan-2-yl)-1-(4-(trifluoromethyl)piperidin-1-ylsulfonyl)-2,3-dihydro-1H-pyrido[2,3-b][1,4]oxazine-7-carboxamide] showed an EC50 of no more than 30 nM.
The same measure, in the same setting: next, `O=C(N[C@H]1CCC[C@@H]1O)c1cnc2c(c1)N(S(=O)(=O)c1ccc(Cl)cc1F)CCO2` [Example 111, 1-(4-chloro-2-fluorophenylsulfonyl)-N-((1S,2S)-2-hydroxycyclopentyl)-2,3-dihydro-1H-pyrido[2,3-b][1,4]oxazine-7-carboxamide]: no more than 30 nM.
The compound `O=C(NC1CCCC1)c1cnc2c(c1)N(S(=O)(=O)c1ccc(F)cc1)CCO2` [Example 10] gave an EC50 of no more than 30 nM.
On the same count and under the same terms, for `CC(C)(C)NC(=O)c1cnc2c(c1)N(S(=O)(=O)N1Cc3ccccc3C1)CCO2` [Example 183, N-tert-butyl-1-(isoindolin-2-ylsulfonyl)-2,3-dihydro-1H-pyrido[2,3-b][1,4]oxazine-7-carboxamide] the value was no more than 30 nM.
As for `CC(C)CNC(=O)c1cnc2c(c1)N(S(=O)(=O)c1ccc(F)cc1)CCO2` [Example 8, 1-(4-fluorophenyl-sulfonyl)-N-isobutyl-2,3-dihydro-1H-pyrido[2,3-b][1,4]oxazine-7-carboxamide], the EC50 is no more than 30 nM.
Same read-out and setting: next, `O=C(NC1(CO)CCCC1)c1cnc2c(c1)N(S(=O)(=O)c1ccc(C(F)(F)F)cc1)CCO2` [Example 67, N-(1-(hydroxymethyl)-cyclopentyl)-1-(4-(trifluoromethyl)phenylsulf-onyl)-2,3-dihydro-1H-pyrido[2,3-b][1,4]oxazine-7-carboxamide]: no more than 30 nM.

Staying with this assay, now noted: asterisk at the compound number.
Take `CC(C)(C)NC(=O)c1noc(-c2cnc3c(c2)N(S(=O)(=O)c2ccc(F)cc2)CCO3)n1` [Example 214, N-tert-butyl-5-(1-(4-fluoro-phenylsulfonyl)-2,3-dihydro-1H-pyrido[2,3-b][1,4]oxazin-7-yl)-1,2,4-oxadiazole-3-carboxamide]: the “inverse agonist mark, rat CB2 receptor” value is 181, 188, 189, 190, 195, 200, 201, 202, 204, 211*, 214*, 220, 221,.

The next assay has as its target human CB1 receptor (Homo sapiens, UniProt P21554). The experiment in a line: cell-based.
Conditions: not given
`CC(C)(CN1CCOCC1)NC(=O)c1cnc2c(c1)N(S(=O)(=O)N1CCCCC1)CCO2` [Example 147, N-(2-methyl-1-morpholinopropan-2-yl)-1-(piperidin-1-ylsulfonyl)-2,3-dihydro-1H-pyrido[2,3-b][1,4]oxazine-7-carboxamide] yielded an EC50 greater than 30 µM.

A word on the EC50: it is the concentration at which the effect is half-maximal.
